Assay results taken from patent US8829202B2, “Condensed polycyclic aromatic compound, aromatic polymer, and method for synthesizing aromatic compound” (Teijin Limited, priority 2011, dated 2014).
Where “and” joins values, the source holds several entries; their conditions need not be identical. Equal entries are not always repeated.

test: Solubility of the obtained compound in chloroform; format: physicochemical; details: solvent chloroform

Compound	solubility in chloroform
CC[Si](C#Cc1c2ccccc2cc2sc3c(sc4cc5ccccc5c(C#C[Si](CC)(CC)CC)c43)c12)(CC)CC [Di-triethylsilylacetylene-substituted DNTT]	0.10 wt % and 0.13 wt %
C[Si](C)(C)C#Cc1c2ccccc2cc2sc3c(sc4cc5ccccc5c(C#C[Si](C)(C)C)c43)c12 [Di-trimethylsilylacetylene-substituted DNTT]	0.05 wt %
CCCCCCCCC#Cc1c2ccccc2cc2sc3c(sc4cc5ccccc5c(C#CCCCCCCCC)c43)c12 [di-1-dysine-substituted DNTT, Di-1-dysine-substituted dinaphthothienothiophene]	2.3 wt %
Di-triisopropylsilylethane-substituted DNTT	0.51 wt %

Other lines, results leading:

solubility in chloroform	Compound
6.5 wt %	CCCCCCCCCCCCC#Cc1c2ccccc2cc2sc3c(sc4cc5ccccc5c(C#CCCCCCCCCCCCC)c43)c12 [di-1-tetradysine-substituted DNTT, di-1-tetradecyne-substituted DNTT]
0.05 wt %	CCCCCCCCCCc1c2ccccc2cc2sc3c(sc4cc5ccccc5c(CCCCCCCCCC)c43)c12 [di-decane-substituted DNTT]
0.2 wt %	Di-triisopropylsilylacetylene-substituted dinaphthothienothiophene [di-TIPS-substituted DNTT]

same assay, conditions: solvent chloroform; DNTT used as raw material

solubility in chloroform (in words)	Compound
substantially not dissolved	c1ccc2cc3c(cc2c1)sc1c2cc4ccccc4cc2sc31 [DNTT, Dinaphthothienothiophene, reference compound]

same assay, conditions: solvent chloroform; listed as di-1-tetradesyne-substituted DNTT

solubility in chloroform	Compound
1.67 wt %	CCCCCCCCCCCCC#Cc1c2ccccc2cc2sc3c(sc4cc5ccccc5c(C#CCCCCCCCCCCCC)c43)c12 [di-1-tetradysine-substituted DNTT, di-1-tetradecyne-substituted DNTT]
